The target in one experiment is T1, RXRα LBD (Homo sapiens, UniProt P19793).
T1 construct: made in house
T1 sequence (P19793 with tags, fused parts or gaps): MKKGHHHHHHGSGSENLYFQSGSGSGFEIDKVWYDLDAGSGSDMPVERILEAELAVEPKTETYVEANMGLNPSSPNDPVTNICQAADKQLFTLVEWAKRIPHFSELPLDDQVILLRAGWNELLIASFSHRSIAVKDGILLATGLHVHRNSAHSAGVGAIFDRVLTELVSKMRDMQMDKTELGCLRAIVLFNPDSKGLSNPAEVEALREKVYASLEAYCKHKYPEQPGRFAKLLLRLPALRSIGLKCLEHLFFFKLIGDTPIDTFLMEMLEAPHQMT
As to the kind of experiment: MST binding to RXRα LBD (specificity control). The text has this: The Nurr1 LBD protein, containing the N-terminal “LAP2” sequence that is recognized by a “coumarin ligase”, was expressed and purified using metal affinity and size-exclusion chromatography according to the previously reported protocol, except that the TEV cleavage step and reverse metal affinity chromatography were omitted.^1 The RXRα LBD protein, containing the N-terminal “LAP2” sequence, was expressed and purified identically to the Nurr1 LBD protein with minor modifications. Specifically, the elution of protein from Talon resin was performed by a step gradient of 10 CV each of 50 mM, 100 mM, 200 mM and 300 mM imidazole in 50 mM Tris-HCl buffer containing 300 mM NaCl at pH 7.8. Purity of protein in each fraction was analyzed by SDS PAGE and fractions eluted with 100-300 mM imidazole were pooled and concentrated. […]
Data were collected using the Monolith NT.115 System (Nanotemper), with settings for all samples at 40% excitation power and 40% MST power. The initial fluorescence was recorded for 3 sec and the thermophoresis fluorescence response was recorded for 20 sec. The data was inspected with Palmist software^5, and data points affected by initial fluorescence quenching or photobleaching were eliminated. The fluorescent response for each sample was normalized to the initial fluorescence using Palmist software to provide the values of thermophoresis (Fn). […]

In experiment [1] the test system is Nurr1 (siRNA knockdown) in MN9D cells. Kind of experiment: Nurr1 knockdown (siRNA) assay with qPCR of target genes in MN9D cells. As to conditions: 10 μM, 24 h, Nurr1 siRNA vs control siRNA. In kind it is cell-based, mouse. Here is the method:
Nurr1 knockdown (siRNA) assays were completed according to standard protocols. Briefly, MN9D cells were resuspended in DMEM/F-12 with 5% FBS at 1·10^6 cells/mL, and reverse-transfected with either control or Nurr1 siRNAs (40 nM final concentration) by combining 4 mL of cell suspension with 1 mL of Opti-MEM containing 200 nM siRNA and 10 μL Lipofectamine 2000 (Invitrogen, cat #:11668019). The resulting cell suspension was plated on poly-D-lysine treated six-well plates at 2.5 mL/well, and allowed to incubate for 24 h at 37° C., in 5% CO2 incubator. After 24 hours, the cells were trypsinized, resuspended in DMEM/F-12 with 5% FBS at 2·10^5 cells/mL, mixed with equal volume of 20 μM 5-chloroindole in the same media containing 0.2% DMSO (prepared by diluting DMSO stock of 5-chloroindole (10 mM) in warm DMEM/F-12 with 5% FBS; for the DMSO control an equivalent volume of DMSO was used instead of the compound stock), and immediately re-plated on poly-D-lysine pre-treated 24-well plates at 1-10^5 cells/well and incubated as above. After 24 hours, total RNA was isolated and the target gene transcription assay (qPCR) was performed as described above. Nurr1 siRNA N1 were purchased from Sigma (Cat No. SASI_Mm02_00322368), and the sequences were as follows: 5′-GAA UCA GCU UUC UUA GAA U[dT][dT]-3′ (SEQ ID NO:17) (sense) and 5′-AUU CUA AGA AAG CUG AUU C[dT][dT]-3′ (SEQ ID NO:18) (antisense). […]
On the technique in general: Quantitative PCR measures a nucleic acid by following its amplification.

Molecules are shown by their SMILES. “Also recorded” adds a separate entry of the source.

Regarding `Clc1ccc2[nH]ccc2c1` [5-chloroindole], the “Binding to the RXRα LBD (in words)” value at RXRα LBD was “does not exhibit saturable binding”. Besides, in experiment [1], the “Effect on expression of Th and Vmat2 with knockdown of Nurr1” value is “significantly reduced in the presence of Nurr1 siRNA, but not control siRNA; also recorded: inhibited by siRNA specific for Nurr1”.

The values are drawn from patent US20230255934A1, “NURR1 RECEPTOR MODULATORS AND USES THEREOF” (The Regents of the University of California, priority 2020, published 2023).
